In article doi:10.1101/2020.05.21.106633v1 (bioRxiv, 2020):
Non-standard residues stand in square brackets, D forms with d. Residues, ends and D or L forms follow the SMILES beside them. *: point of attachment. FITC = O=C1OC2(c3ccc(O)cc3Oc3cc(O)ccc32)c2ccc(NC(=S)*)cc21; Ahx = NCCCCCC(=O)O

Columns and labels:
[1] = target: T1, recombinant dg-Bcan protein (deglycosylated recombinant human brevican) (Homo sapiens, UniProt Q96GW7); assay: Octet binding kinetic analysis; settings: for Rmax (maximal response in response unit): Octet steady state analysis, one site specific binding fit
T1 sequence (Q96GW7 23-911): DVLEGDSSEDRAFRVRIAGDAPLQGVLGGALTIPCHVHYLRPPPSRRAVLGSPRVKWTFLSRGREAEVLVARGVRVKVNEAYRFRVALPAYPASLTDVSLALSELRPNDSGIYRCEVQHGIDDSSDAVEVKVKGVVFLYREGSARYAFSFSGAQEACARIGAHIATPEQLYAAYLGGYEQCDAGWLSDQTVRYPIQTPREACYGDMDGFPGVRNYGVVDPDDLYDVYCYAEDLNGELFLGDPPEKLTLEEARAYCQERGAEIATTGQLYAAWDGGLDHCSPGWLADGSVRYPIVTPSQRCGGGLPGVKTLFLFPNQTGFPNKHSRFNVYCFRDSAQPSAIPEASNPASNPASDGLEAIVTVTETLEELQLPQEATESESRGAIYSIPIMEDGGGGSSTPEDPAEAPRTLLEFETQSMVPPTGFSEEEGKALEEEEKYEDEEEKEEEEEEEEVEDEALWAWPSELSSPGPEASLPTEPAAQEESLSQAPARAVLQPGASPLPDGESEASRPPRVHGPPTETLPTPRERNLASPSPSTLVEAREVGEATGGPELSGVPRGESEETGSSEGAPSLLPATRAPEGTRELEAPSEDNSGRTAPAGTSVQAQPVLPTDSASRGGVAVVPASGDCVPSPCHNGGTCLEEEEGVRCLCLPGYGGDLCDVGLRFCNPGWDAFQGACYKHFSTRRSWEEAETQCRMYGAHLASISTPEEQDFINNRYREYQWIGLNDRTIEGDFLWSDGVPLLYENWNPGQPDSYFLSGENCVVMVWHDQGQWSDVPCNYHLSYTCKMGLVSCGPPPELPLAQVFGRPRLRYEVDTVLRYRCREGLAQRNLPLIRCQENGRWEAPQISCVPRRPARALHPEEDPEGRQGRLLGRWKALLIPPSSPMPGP

GBM-6 cells = assay: CellTitre-Glo cell viability assay, GBM-6; format: cell-based, human; settings: BTP-7 50 µM, 48 hrs, nwell = 3
GBM-6 neurospheres = assay: Collagen cell invasion assay; format: cell-based, human; settings: BTP-7 50 µM, n = 3

SMILES | Rmax (maximal response in response unit) [1] | effect on GBM-6 proliferation (GBM-6 cells) | effect on GBM-6 invasion in collagen (GBM-6 neurospheres) | Kd [1] [µM]
CC(C)[C@@H](NC(=O)[C@@H](Cc1c[nH]cn1)NC(=O)CNC(=O)[C@@H](Cc1c[nH]c2ccccc12)NC(=O)[C@@H](CCCCN)NC(=O)[C@H](N)[C@H](C)O)C(=O)N[C@H](CC(N)=O)C(=O)N[C@H](CCCCN)C(N)=O [BTP-7] | 0.307 | not affected | not affected | 
CC(C)[C@@H](NC(=O)[C@@H](Cc1c[nH]cn1)NC(=O)CNC(=O)[C@@H](Cc1c[nH]c2ccccc12)NC(=O)[C@@H](CCCCN)NC(=O)[C@H](N)[C@H](C)O)C(=O)N[C@H](CC(N)=O)C(=O)N[C@H](CCCCN)C(=O)NCCCCCC(=O)N[C@@H](CCCCNC(=S)Nc1ccc2c(c1)C(=O)OC21c2ccc(O)cc2Oc2cc(O)ccc21)C(N)=O [Fluorescein-conjugated BTP-7] (H-[dT][dK][dW]G[dH][dV][dN][dK][Ahx]K(FITC)-NH2) |  |  |  | 3.8
CC[C@@H](C)[C@@H](NC(=O)[C@@H](C)NC(=O)[C@@H](CCCNC(=N)N)NC(=O)[C@@H](CCC(N)=O)NC(=O)[C@@H](CCCNC(=N)N)NC(=O)[C@@H](CCCNC(=N)N)NC(=O)[C@@H](CC(=O)O)NC(=O)[C@@H](C)N)C(N)=O [BTP-9] (H-[dA][dD][dR][dR][dQ][dR][dA][dI]-NH2; N-terminus and C-terminus assumed) | 0.338 |  |  | 
